# Measured values reported in PubChem BioAssay AID248 (DTP/NCI, 2004).
# Where “and” joins values, the source holds several entries; their conditions need not be identical. Equal values may be shown once. Toxic doses and inconclusive results are not listed.
# Test system: L1210 leukemia ip in BDF1 mice, survival T/C
# Assay: NCI In Vivo Anticancer Drug Screen. Data for tumor model L1210 Leukemia (intraperitoneal) in B6D2F1 (BDF1) mice
# Settings: endpoint: mean survival time, higher = longer survival
# In short: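 Value reflects the ratio of survival in compound-treated mice to survival in vehicle-treated controls, with both groups carrying the same transplanted tumor.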
smiles,measurement,setting,value
CN(Cc1cnc2nc(N)nc(N)c2n1)c1c(Cl)cc(C(=O)NC(CCC(=O)O)C(=O)O)cc1Cl (configuration not stated),T/C,"dose: 0.05 mg/kg/injection, schedule: Q03HX024 (ip), vehicle: alkali diluted with saline",108 % of control
same,T/C,"dose: 0.12 mg/kg/injection, schedule: Q01DX Z (ip), vehicle: saline",103 % of control
same,T/C,"dose: 0.2 mg/kg/injection, schedule: Q03HX024 (ip), vehicle: alkali diluted with saline",121 % of control
same,T/C,"dose: 0.31 mg/kg/injection, schedule: Q03HX008 (ip), vehicle: carboxymethylcellulose (CMC)",114 % of control
same,T/C,"dose: 0.39 mg/kg/injection, schedule: Q03HX024 (ip), vehicle: carboxymethylcellulose (CMC)",111 % of control
same,T/C,"dose: 0.5 mg/kg/injection, schedule: Q01DX Z (ip), vehicle: saline",106 % of control
same,T/C,"dose: 0.5 mg/kg/injection, schedule: Q01DX Z (sc), vehicle: alkali diluted with saline",102 % of control
same,T/C,"dose: 0.6 mg/kg/injection, schedule: Q## X008 (ip), vehicle: alkali diluted with saline",106 % of control
same,T/C,"dose: 0.63 mg/kg/injection, schedule: Q03HX008 (ip), vehicle: carboxymethylcellulose (CMC)",119 % of control
same,T/C,"dose: 0.78 mg/kg/injection, schedule: Q03HX024 (ip), vehicle: carboxymethylcellulose (CMC)",114 % of control
same,T/C,"dose: 1.0 mg/kg/injection, schedule: Q01DX Z (im), vehicle: alkali diluted with saline",107 % of control
same,T/C,"dose: 1.0 mg/kg/injection, schedule: Q01DX Z (ip), vehicle: saline",122 % of control
same,T/C,"dose: 1.0 mg/kg/injection, schedule: Q01DX Z (sc), vehicle: alkali diluted with saline",95 % of control
same,T/C,"dose: 2.5 mg/kg/injection, schedule: Q01DX005 (ip), vehicle: carboxymethylcellulose (CMC)",117 % of control
same,T/C,"dose: 2.5 mg/kg/injection, schedule: Q01DX Z (im), vehicle: alkali diluted with saline",102 % of control
same,T/C,"dose: 2.5 mg/kg/injection, schedule: Q01DX Z (sc), vehicle: alkali diluted with saline",106 % of control
same,T/C,"dose: 3.0 mg/kg/injection, schedule: Q01DX Z (ip), vehicle: carboxymethylcellulose (CMC)",159 % of control
same,T/C,"dose: 3.0 mg/kg/injection, schedule: Q01DX Z (ip), vehicle: saline",169 % of control
same,T/C,"dose: 4.0 mg/kg/injection, schedule: Q## X008 (ip), vehicle: alkali diluted with saline",104 % of control
same,T/C,"dose: 5.0 mg/kg/injection, schedule: Q01DX005 (ip), vehicle: carboxymethylcellulose (CMC)",120 % of control
same,T/C,"dose: 5.0 mg/kg/injection, schedule: Q01DX009 (ip), vehicle: carboxymethylcellulose (CMC)",121 % of control
same,T/C,"dose: 5.0 mg/kg/injection, schedule: Q01DX009 (sc), vehicle: carboxymethylcellulose (CMC)",115 % of control
same,T/C,"dose: 5.0 mg/kg/injection, schedule: Q01DX Z (im), vehicle: alkali diluted with saline",112 % of control
same,T/C,"dose: 5.0 mg/kg/injection, schedule: Q01DX Z (oral), vehicle: alkali diluted with saline",120 % of control
same,T/C,"dose: 5.0 mg/kg/injection, schedule: Q01DX Z (sc), vehicle: alkali diluted with saline",105 % of control
same,T/C,"dose: 5.0 mg/kg/injection, schedule: Q#A X Z (ip), vehicle: methylcellulose (MC)",162 % of control
same,T/C,"dose: 6.0 mg/kg/injection, schedule: Q01DX Z (ip), vehicle: carboxymethylcellulose (CMC)",161 % of control
same,T/C,"dose: 6.25 mg/kg/injection, schedule: Q03HX024 (ip), vehicle: carboxymethylcellulose (CMC)",116 % of control
same,T/C,"dose: 9.0 mg/kg/injection, schedule: Q01DX Z (ip), vehicle: clinical formulation",157 % of control
same,T/C,"dose: 10.0 mg/kg/injection, schedule: Q01DX006 (iv), vehicle: alkali diluted with saline",106 % of control
same,T/C,"dose: 10.0 mg/kg/injection, schedule: Q01DX Z (im), vehicle: alkali diluted with saline",159 % of control
same,T/C,"dose: 10.0 mg/kg/injection, schedule: Q01DX Z (ip), vehicle: saline",167 % of control
same,T/C,"dose: 10.0 mg/kg/injection, schedule: Q01DX Z (oral), vehicle: alkali diluted with saline",120 % of control
same,T/C,"dose: 10.0 mg/kg/injection, schedule: Q01DX Z (sc), vehicle: alkali diluted with saline",159 % of control
same,T/C,"dose: 12.5 mg/kg/injection, schedule: Q03HX024 (ip), vehicle: carboxymethylcellulose (CMC)",122 % of control
same,T/C,"dose: 15.0 mg/kg/injection, schedule: Q## X008 (ip), vehicle: alkali diluted with saline",114 % of control
same,T/C,"dose: 20.0 mg/kg/injection, schedule: Q01DX006 (iv), vehicle: alkali diluted with saline",123 % of control
same,T/C,"dose: 20.0 mg/kg/injection, schedule: Q01DX007 (ip), vehicle: other",160 % of control
same,T/C,"dose: 20.0 mg/kg/injection, schedule: Q01DX009 (ip), vehicle: carboxymethylcellulose (CMC)",153 % of control
same,T/C,"dose: 20.0 mg/kg/injection, schedule: Q01DX Z (oral), vehicle: alkali diluted with saline",115 % of control
same,T/C,"dose: 20.0 mg/kg/injection, schedule: Q#A X Z (ip), vehicle: olive oil, sesame oil, peanut oil",116 % of control
same,T/C,"dose: 25.0 mg/kg/injection, schedule: Q04DX003 (ip), vehicle: alkali diluted with saline",112 % of control
same,T/C,"dose: 25.0 mg/kg/injection, schedule: Q04DX003 (ip), vehicle: carboxymethylcellulose (CMC)",117 % of control
same,T/C,"dose: 25.0 mg/kg/injection, schedule: Q## X003 (ip), vehicle: other",106 % of control
same,T/C,"dose: 25.0 mg/kg/injection, schedule: Q## X016 (ip), vehicle: other",115 % of control
same,T/C,"dose: 30.0 mg/kg/injection, schedule: Q01DX Z (ip), vehicle: carboxymethylcellulose (CMC)",159 % of control
same,T/C,"dose: 30.0 mg/kg/injection, schedule: Q03DX Z (ip), vehicle: methylcellulose (MC)",122 % of control
same,T/C,"dose: 40.0 mg/kg/injection, schedule: Q01DX007 (ip), vehicle: other",163 % of control
same,T/C,"dose: 40.0 mg/kg/injection, schedule: Q01DX009 (ip), vehicle: carboxymethylcellulose (CMC)",161 % of control
same,T/C,"dose: 40.0 mg/kg/injection, schedule: Q01DX Z (ip), vehicle: methylcellulose (MC)",169 % of control
same,T/C,"dose: 40.0 mg/kg/injection, schedule: Q01DX Z (oral), vehicle: alkali diluted with saline",102 % of control
same,T/C,"dose: 50.0 mg/kg/injection, schedule: Q## X003 (ip), vehicle: other",124 % of control
same,T/C,"dose: 50.0 mg/kg/injection, schedule: Q## X016 (ip), vehicle: other",121 % of control
same,T/C,"dose: 67.5 mg/kg/injection, schedule: Q01DX Z (ip), vehicle: saline",150 % of control
same,T/C,"dose: 70.0 mg/kg/injection, schedule: Q01DX001 (ip), vehicle: methylcellulose (MC)",116 % of control
same,T/C,"dose: 70.0 mg/kg/injection, schedule: Q01DX Z (ip), vehicle: clinical formulation",103 % of control
same,T/C,"dose: 70.0 mg/kg/injection, schedule: Q07DX Z (ip), vehicle: methylcellulose (MC)",116 % of control
same,T/C,"dose: 80.0 mg/kg/injection, schedule: Q01DX005 (ip), vehicle: carboxymethylcellulose (CMC)",158 % of control
same,T/C,"dose: 80.0 mg/kg/injection, schedule: Q01DX006 (iv), vehicle: alkali diluted with saline",165 % of control
same,T/C,"dose: 80.0 mg/kg/injection, schedule: Q01DX Z (im), vehicle: alkali diluted with saline",113 % of control
same,T/C,"dose: 80.0 mg/kg/injection, schedule: Q01DX Z (oral), vehicle: alkali diluted with saline",94 % of control
same,T/C,"dose: 80.0 mg/kg/injection, schedule: Q01DX Z (sc), vehicle: alkali diluted with saline",112 % of control
same,T/C,"dose: 90.0 mg/kg/injection, schedule: Q01DX Z (ip), vehicle: saline",94 % of control
same,T/C,"dose: 100.0 mg/kg/injection, schedule: Q01DX001 (sc), vehicle: carboxymethylcellulose (CMC)",111 % of control
same,T/C,"dose: 100.0 mg/kg/injection, schedule: Q04DX003 (ip), vehicle: alkali diluted with saline",124 % of control
same,T/C,"dose: 120.0 mg/kg/injection, schedule: Q01DX001 (ip), vehicle: carboxymethylcellulose (CMC)",117 % of control
same,T/C,"dose: 120.0 mg/kg/injection, schedule: Q03DX Z (ip), vehicle: methylcellulose (MC)",153 % of control
same,T/C,"dose: 120.0 mg/kg/injection, schedule: Q## X008 (ip), vehicle: other",112 % of control
same,T/C,"dose: 140.0 mg/kg/injection, schedule: Q01DX001 (ip), vehicle: methylcellulose (MC)",116 % of control
same,T/C,"dose: 140.0 mg/kg/injection, schedule: Q01DX Z (ip), vehicle: clinical formulation",110 % of control
same,T/C,"dose: 140.0 mg/kg/injection, schedule: Q07DX Z (ip), vehicle: methylcellulose (MC)",123 % of control
same,T/C,"dose: 200.0 mg/kg/injection, schedule: Q01DX001 (sc), vehicle: carboxymethylcellulose (CMC)",114 % of control
same,T/C,"dose: 200.0 mg/kg/injection, schedule: Q01DX001 (sc), vehicle: other",121 % of control
same,T/C,"dose: 200.0 mg/kg/injection, schedule: Q04DX003 (ip), vehicle: carboxymethylcellulose (CMC)",157 % of control
same,T/C,"dose: 200.0 mg/kg/injection, schedule: Q## X016 (ip), vehicle: other",162 % of control
same,T/C,"dose: 240.0 mg/kg/injection, schedule: Q01DX001 (ip), vehicle: alkali diluted with saline",115 % of control
same,T/C,"dose: 240.0 mg/kg/injection, schedule: Q01DX001 (ip), vehicle: other",113 % of control
same,T/C,"dose: 240.0 mg/kg/injection, schedule: Q## X008 (ip), vehicle: other",112 % of control
same,T/C,"dose: 285.0 mg/kg/injection, schedule: Q01DX001 (ip), vehicle: carboxymethylcellulose (CMC)",110 % of control
same,T/C,"dose: 400.0 mg/kg/injection, schedule: Q01DX001 (ip), vehicle: olive oil, sesame oil, peanut oil",114 % of control
same,T/C,"dose: 400.0 mg/kg/injection, schedule: Q01DX001 (sc), vehicle: other",121 % of control
same,T/C,"dose: 400.0 mg/kg/injection, schedule: Q04DX003 (ip), vehicle: alkali diluted with saline",166 % of control
same,T/C,"dose: 400.0 mg/kg/injection, schedule: Q07DX Z (ip), vehicle: olive oil, sesame oil, peanut oil",97 % of control
same,T/C,"dose: 434.0 mg/kg/injection, schedule: Q01DX001 (ip), vehicle: carboxymethylcellulose (CMC)",121 % of control
same,T/C,"dose: 480.0 mg/kg/injection, schedule: Q01DX001 (ip), vehicle: alkali diluted with saline",122 % of control
same,T/C,"dose: 560.0 mg/kg/injection, schedule: Q01DX001 (ip), vehicle: methylcellulose (MC)",123 % of control
same,T/C,"dose: 800.0 mg/kg/injection, schedule: Q01DX001 (ip), vehicle: olive oil, sesame oil, peanut oil",109 % of control and 120 % of control
same,T/C,"dose: 800.0 mg/kg/injection, schedule: Q04DX003 (ip), vehicle: alkali diluted with saline",168 % of control
same,T/C,"dose: 800.0 mg/kg/injection, schedule: Q07DX Z (ip), vehicle: olive oil, sesame oil, peanut oil",106 % of control
same,T/C,"dose: 800.0 mg/kg/injection, schedule: Q## X003 (ip), vehicle: other",169 % of control
same,T/C,"dose: 800.0 mg/kg/injection, schedule: Q## X016 (ip), vehicle: other",165 % of control
same,T/C,"dose: 875.0 mg/kg/injection, schedule: Q01DX001 (ip), vehicle: alkali diluted with saline",158 % of control
same,T/C,"dose: 960.0 mg/kg/injection, schedule: Q01DX001 (ip), vehicle: carboxymethylcellulose (CMC)",158 % of control
same,T/C,"dose: 1200.0 mg/kg/injection, schedule: Q01DX001 (ip), vehicle: olive oil, sesame oil, peanut oil",115 % of control and 122 % of control
same,T/C,"dose: 1200.0 mg/kg/injection, schedule: Q07DX Z (ip), vehicle: olive oil, sesame oil, peanut oil",95 % of control
same,T/C,"dose: 1600.0 mg/kg/injection, schedule: Q04DX003 (ip), vehicle: alkali diluted with saline",98 % of control
same,T/C,"dose: 1600.0 mg/kg/injection, schedule: Q07DX Z (ip), vehicle: olive oil, sesame oil, peanut oil",101 % of control
